≈ marks a conversion by molar mass, not a printed value.
Conditions: buffer; pH 7.4; 200.0 µM

Row | Compound | solubility kinetic [µg/mL]
1 | COc1cccc2c(Nc3ccccc3C)cc(C)nc12.Cl | 40.1
2 | c1ccc2[nH]cnc2c1 | > 17.7
3 | CC(NC(=S)Nc1ccccc1)C(c1cccs1)N1CCOCC1 (stereo not given) | 3.1 (≈ 8.57 µM)
4 | O=C(CNC(=O)c1cnccc1C(F)(F)F)c1cccc(Cl)c1 | 25.3 (≈ 73.8 µM)
5 | C[C@@H](C(=O)OCC(=O)c1ccccc1)N1C(=O)C2CCCCC2C1=O (stereo not given in full) | > 51.5
6 | CC12CN3CC(C)(CN(C1)C3c1ccccc1)C2O (stereo not given) | > 38.8
7 | C/C(N)=C(/C#N)C(=O)COC(=O)c1cc2c(s1)CCCC2 | 2.2 (≈ 7.23 µM)
8 | CCOC(=O)C1=C(C)NC(C)=C(C(=O)OCC)C1C(=O)OCC(=O)N(C)Cc1ccccc1 | 2.8 (≈ 6.11 µM)
9 | COc1ccc(C(=O)O)cc1NCc1ccc(C)s1 | > 41.6
10 | CCOC(=O)C1CCN(C(=O)c2ccc(C)o2)CC1 | > 39.8
11 | Cc1ccc(NC(=O)NCCCN2CCCC2=O)c(C)c1 | > 43.4
12 | CCOc1ccc(N=Cc2c(O)n(-c3ccc(C)c(C)c3)c(=O)[nH]c2=O)cc1 | 2.9 (≈ 7.64 µM)
13 | COc1ccc(/C=C/C(=O)OCC(=O)NC2CCCC(C)C2C)cc1 (stereo not given) | 6.1 (≈ 17.7 µM)
14 | CC(C)(C)NC(=O)/C=C/c1cccs1 | > 31.4
15 | O=[N+]([O-])c1ccc2c(c1N1CCCCC1)=NC1(CCCCC1)[N+]=2[O-] | 47.1 (≈ 143 µM)
16 | CCC1(C)Cc2c(C#N)c(N)n(-c3ccccc3)c(=S)c2CO1 (stereo not given) | 26.4 (≈ 81.1 µM)
17 | C=CCc1cc(C)ccc1OCCCn1ccnc1.O=C(O)C(=O)O | 29.1
18 | O=C(/C=C/c1cccs1)N1CCCC1 | > 31.1
19 | COc1ccc(OC)c(C(=O)COC(=O)c2cccnc2SC)c1 | 4.2 (≈ 12.1 µM)
20 | NC(=O)c1c(/N=C/c2cccnc2)sc2c1CCCC2 | 22 (≈ 77.1 µM)

Row | Compound | solubility kinetic [µg/mL]
21 | S=C(Nc1cccnc1)Nc1ccccc1Br | > 46.2
22 | COc1cc(CNC(=O)c2cnc(C)cn2)cc(OC)c1 | > 43.1
23 | Cc1cccc(NC(=O)NCCCCc2ccccc2)c1 | 0.4 (≈ 1.42 µM)
24 | CCc1ccccc1NC(=O)C1CCN(C(=O)c2cccs2)CC1 | > 51.4
25 | CN(C)c1ccc(C2NC(=O)c3ccccc3N2)cc1 (stereo not given) | 8.8 (≈ 32.9 µM)
26 | N#Cc1c(N2CCNCC2)nc(-c2ccco2)c2c1CCCC2 | > 46.3
27 | O=C1N(c2ccccc2)C(c2cccnc2)N2CCCN12 (stereo not given) | > 42
28 | COc1ccc(Cl)cc1NC(=S)N1CCCCCC1 | 42.7 (≈ 143 µM)
29 | O=C(CN1C(=O)NC2(CCCC2)C1=O)Nc1ccc(F)c(Cl)c1 | > 51
30 | O=C(NN=C1CCCC1)c1ccc(Cl)cc1 | > 35.5
31 | O=C(CNS(=O)(=O)c1cccs1)NCc1ccc(F)cc1 | > 49.3
32 | O=C(Nc1ccccc1Cl)OCc1cncs1 | 35.1 (≈ 131 µM)
33 | N#Cc1c(Nc2ccccc2)s[nH]c1=O | > 32.6
34 | COc1ccc(C(=O)n2c(N)nc3ccccc32)cc1OC.Cl | 10.9
35 | C[C@H]1O[C@@H](n2cc(F)c(=O)[nH]c2=O)[C@H](O)[C@@H]1O | > 36.9
36 | COc1ccc(CCNC(=O)c2cnc(C)cn2)cc1 | > 40.7
37 | O=C(NS(=O)(=O)c1ccccc1)c1cccc(Br)c1 | > 51
38 | O=C(Cn1c(=O)oc2ccc(Cl)cc21)NC1CCCCC1 | 2.9 (≈ 9.39 µM)
39 | CSc1ccc(Cl)c(C(=O)N2CCN(CC(=O)N3CCCC3)CC2)c1 | > 57.3
40 | CC(=O)Cc1nsc(NC(=O)c2ccc(Cl)cc2Cl)n1 | > 49.5

Row | Compound | solubility kinetic [µg/mL]
41 | Cc1c(NC(=O)Nc2ccc3c(c2)OCO3)cccc1[N+](=O)[O-] | 0.8 (≈ 2.54 µM)
42 | Cc1cc(C(=O)NCc2ccco2)c2cc(F)ccc2n1 | 42.3 (≈ 149 µM)
43 | COc1ccc(Nc2nc3ccccc3c(=O)[nH]2)cc1 | 24.4 (≈ 91.3 µM)
44 | CC1CCCN(C(=O)c2cc(-c3cccs3)nc3ccccc23)C1 (stereo not given) | 17.2 (≈ 51.1 µM)
45 | CCc1sc(C(=O)Nc2nc(C)cs2)cc1C | 7.3 (≈ 27.4 µM)
46 | C/C(CC1CC(C)(C)OC1=O)=N\NC(N)=S (stereo not given) | > 36.5
47 | COCCn1c(C)cc(/C=C2/SC(=O)N(C(C)C(=O)OC)C2=O)c1C (stereo not given) | 36 (≈ 98.2 µM)
48 | Cc1cccc(C(=O)NCCC(=O)NCc2ccccc2F)c1 | > 47.2
49 | Cc1ccccc1SCC(=O)OCC(=O)NCc1ccccc1 | > 49.4
50 | O=C(CN1c2cccc3cccc(c23)S1(=O)=O)Nc1ccccc1Br | 4.4 (≈ 10.5 µM)
51 | CCN(Cc1ccccc1)C(=O)CS(=O)(=O)c1ccccc1 | > 47.6
52 | COc1ccccc1CNC(c1ccccc1)c1ccccc1 | 3.3 (≈ 10.9 µM)
53 | CC(=O)Nc1ccc(S(=O)(=O)NCCC(=O)OCC(=O)NCc2ccccc2)cc1 | > 65
54 | CSc1ccc(NC(=O)/C=C/C(=O)O)cc1 | 30.8 (≈ 130 µM)
55 | Cc1cc([N+](=O)[O-])ccc1NC(=O)C(C)NC1CCCCC1 (stereo not given) | > 45.8
56 | O=C(CSC(=S)N1CCOCC1)Nc1nccs1 | 7.9 (≈ 26 µM)
57 | O=C(N/N=C/c1ccccc1)C(O)c1ccccc1 (stereo not given) | > 38.1
58 | Cc1ccc(NC(=O)COC(=O)c2nn(C)cc2Cl)cc1 | > 46.2
59 | COc1ccc(NC(=O)CN(C)C(=O)CCc2ccccc2)cc1 | 40.7 (≈ 125 µM)
60 | O=C(CSc1nnc(-c2ccncc2)o1)N1CCCC1 | > 43.6

— PubChem BioAssay AID1996
